Data published in patent US20190046556A1, “Methods and Pharmaceutical Compositions for the Prophylactic Treatment of Peritoneal Carcinomatosis” (INSERM (Institut National de la Sante et de la Recherche …, priority 2016, published 2019).

Test system: OVCAR
Format: in vivo
Conditions: 21 days, nude mice
Text: For that experiment, a human ovarian cancer cell line, named OVCAR is used, as prior exposed for the CT-26 cells. The only difference is the mice receiving cell injection, because OVACR is a human cancer cell, a nude mice animal is used because of immune deficiency of the animal.

## O=C1[O][Pt]2([NH][C@@H]3CCCC[C@H]3[NH]2)[O]C1=O [Oxaliplatin]
  Mean PCI (peritoneal cancer index): 3,7
